The text below walks through data of US10703740B2, “Substituted benzimidazoles, their preparation and their use as pharmaceuticals” (NEOMED Institute, priority 2015, dated 2020).

In assay [1] the test system is human C-Myc transcription in MV-4-11 cells. As to the kind of experiment: Transcription of human C-Myc in human leukemic MV-4-11 cells (QuantiGene 2.0). It counts as cell-based. The settings on record: Homo sapiens, MV4-11, 4 h, inhibition of C-Myc mRNA, 4 hours treatment, read-out: IC50 MV-4-11 Cell. As to the method: The effect of compounds on transcription of human C-Myc gene is monitored in human B-myelomonocytic leukemia cell line MV-4-11 (from American Type Culture Collection (ATCC), Manassas, Va., USA) using QuantiGene 2.0 assay kit (Affymetrix, Santa Clara, Calif., USA).
Typically, 8,000 MV-4-11 cells are plated in sterile 96-well plates (Costar #3598 from Fisher Scientific Canada, Ottawa, Ontario, Canada) in Iscove's medium supplemented with 10% fetal bovine serum, glutamine (2 mM), and penicillin (100 I.U.) and streptomycin (100 μg/mL) (all from Wisent Inc., St. Bruno, Quebec, Canada). Compounds are dissolved in DMSO at 30 mM. A series of 1:3 dilutions are first made in DMSO, and further 1:100 dilutions are made in serum-containing cell culture media. The final concentration of DMSO is 0.1% in cell culture media. After cells are treated with various concentrations of test compound for 4 hours, cells are lysed using Quantigene 2.0 sample processing kit (# QS0100). C-Myc mRNA is detected using a QuantiGene 2.0 assay kit (# QS0009) with gene-specific probe to human C-Myc (# SA-50182) following the manufacturer's recommendations. Luminescene signals are read on Flexstation II microplate reader (Molecular Devices, Sunnyvale, Calif., USA).

Assay [2] has as its target BRD4(BD1) (Homo sapiens (Human), UniProt O60885). As to the kind of experiment: In vitro bromodomain inhibition assay (AlphaLISA). It counts as binding. The conditions noted are these: His-tagged BRD4 BD1 200 nM, biotinylated H4-tetraacetyl peptide 200 nM. As to the method:
To measure activity of bromodomain inhibitors, a His-epitope tagged BRD4 BD149-170 is purchased from BPS Bioscience. BRD4 binding and inhibition is assessed by monitoring the engagement of biotinylated H4-tetraacetyl peptide (H4K5/8/12/16; AnaSpec #64989-025) with the target using the AlphaLISA technology (Perkin-Elmer). Specifically, in a 384 well OptiPlate, BRD4(BD1) (200 nM final) is pre-incubated with either DMSO (final 1.0% DMSO) or a compound dilution series in DMSO. All reagents are diluted in assay buffer containing 50 mM HEPES (pH 7.4), 100 mM NaCl, 0.1% (w/v) BSA, and 0.05% (w/v) CHAPS. After a 30 minute incubation at rt, H4 peptide is added (200 nM final) and the reaction is incubated an additional 30 minutes at rt. Alpha streptavidin donor beads and AlphaLISA nickel chelate acceptor beads are then added to a final concentration of 10 μg/mL each. After one hour, equilibration plates are read on an Envision instrument and IC50s calculated using a four parameter non-linear curve fit (results are shown in Table 1).
(In general: Bead proximity is the source of the signal in Alpha formats.)

Broadly, the IC50 is the concentration that gives 50% inhibition.

On to `Cc1cc(-c2ccc3ncn(CCOC(F)(F)F)c3c2)cn(C)c1=O` [Compound 3, 1,3-dimethyl-5-[3-[2-(trifluoromethoxy)ethyl]benzimidazol-5-yl]pyridin-2-one], for which the IC50 in assay [1] worked out at 95 nM; in assay [2] it was 310 nM.

As to `CC(=O)N1CCC(c2nc3ccc(-c4cc(C)c(=O)n(C)c4)cc3n2CCOC(F)(F)F)CC1` [Compound 4, 5-[2-(1-acetyl-4-piperidyl)-3-[2-(trifluoromethoxy)ethyl]benzimidazol-5-yl]-1,3-dimethylpyridin-2-one], the IC50 is 89 nM in assay [1] and 130 nM in assay [2].

As to `Cc1cc(-c2ccc3nc(C)n(CCOC(F)(F)F)c3c2)cn(C)c1=O` [Compound 5, 1,3-dimethyl-5-[2-methyl-3-[2-(trifluoromethoxy)ethyl]benzimidazol-5-yl]pyridin-2-one], the IC50 in assay [1] turned out to be 230 nM; in assay [2], 190 nM.

`Cc1cc(-c2ccc3nc(C4CCC4)n(CCOC(F)(F)F)c3c2)cn(C)c1=O` [Compound 6, 5-[2-cyclobutyl-3-[2-(trifluoromethoxy)ethyl]benzimidazol-5-yl]-1,3-dimethyl-pyridin-2-one]: the 50% inhibitory concentration (IC50) in assay [1] worked out at 56 nM; in assay [2], 91 nM.

Consider `COCCn1c(C2CC2)nc2ccc(-c3cc(C)c(=O)n(C)c3)cc21` [Compound 7, 5-[2-cyclopropyl-3-(2-methoxyethyl)benzimidazol-5-yl]-1,3-dimethyl-pyridin-2-one], for which the half-maximal inhibitory concentration (IC50) amounted to 520 nM in assay [1] and 280 nM in assay [2].

Take `COCCn1c(C)nc2ccc(-c3cc(C)c(=O)n(C)c3)cc21` [Compound 8, 5-[3-(2-methoxyethyl)-2-methyl-benzimidazol-5-yl]-1,3-dimethylpyridin-2-one]: the figures for the half-maximal inhibitory concentration (IC50) in assay [1] and in assay [2] were 790 nM and 210 nM, respectively.

`COCCn1c(C2CCOCC2)nc2ccc(-c3cc(C)c(=O)n(C)c3)cc21` [Compound 9, 5-[3-(2-methoxyethyl)-2-tetrahydropyran-4-yl-benzimidazol-5-yl]-1,3-dimethyl pyridin-2-one]: the half-inhibitory concentration (IC50) is 250 nM in assay [1] and 220 nM in assay [2].

Take `COC[C@@H](C)n1c(C2CCOCC2)nc2ccc(-c3cc(C)c(=O)n(C)c3)cc21` [Compound 10, 5-[3-[(1R)-2-methoxy-1-methyl-ethyl]-2-tetrahydropyran-4-yl-benzimidazol-5-yl]-1,3-dimethyl-pyridin-2-one]: the IC50 in assay [1] worked out at 62 nM; in assay [2], 99 nM.

Consider `COC[C@@H](C)n1c(C)nc2ccc(-c3cc(C)c(=O)n(C)c3)cc21` [Compound 11, 5-[3-[(1R)-2-methoxy-1-methyl-ethyl]-2-methyl-benzimidazol-5-yl]-1,3-dimethyl pyridin-2-one], for which the IC50 in assay [1] was 170 nM; in assay [2] it was 98 nM.

On to `COC[C@@H](C)n1cnc2ccc(-c3cc(C)c(=O)n(C)c3)cc21` [Compound 12, 5-[3-[(1R)-2-methoxy-1-methyl-ethyl]benzimidazol-5-yl]-1,3-dimethyl-pyridin-2-one], for which the half-maximal inhibitory concentration (IC50) worked out at 550 nM in assay [1] and 330 nM in assay [2].

With `Cn1cc(-c2ccc3nc(C4CC4)n(CCOC(F)(F)F)c3c2)cc(C(F)(F)F)c1=O` [Compound 13, 5-[2-cyclopropyl-3-[2-(trifluoromethoxy)ethyl]benzimidazol-5-yl]-1-methyl-3-(trifluoromethyl)pyridin-2-one], the concentration for half-maximal inhibition (IC50) in assay [1] worked out at 850 nM; in assay [2] it was 810 nM.

Consider `COC[C@@H](C)n1c(C2CC2)nc2ccc(-c3cc(C)c(=O)n(C)c3)cc21` [Compound 15, 5-[2-cyclopropyl-3-[(1R)-2-methoxy-1-methylethyl]benzimidazol-5-yl]-1,3-dimethyl pyridin-2-one], for which the IC50 in assay [1] came to 240 nM; in assay [2] it was 100 nM.
